Laboratory results reported in PMC2928223 (Journal of molecular biology, 2009).

Molecular target: T1, CgFMNAT (Nakaseomyces glabratus, UniProt Q6FNA9)
T1 sequence (Q6FNA9 1-304): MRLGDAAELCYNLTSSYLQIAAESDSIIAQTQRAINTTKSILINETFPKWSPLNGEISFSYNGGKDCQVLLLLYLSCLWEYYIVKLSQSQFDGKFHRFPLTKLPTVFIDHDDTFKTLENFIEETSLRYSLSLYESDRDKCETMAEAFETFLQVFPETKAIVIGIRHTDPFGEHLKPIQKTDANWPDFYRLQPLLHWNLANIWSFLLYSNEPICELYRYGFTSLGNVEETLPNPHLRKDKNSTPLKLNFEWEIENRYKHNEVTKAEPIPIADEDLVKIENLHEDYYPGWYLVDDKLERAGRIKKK

## O=P(O)(O)OP(=O)(O)O [pyrophosphate]
  X-ray crystal structure of product ternary complex (1.35 Å): the densities for both products FAD and pyrophosphate (PPi) are well defined
